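All cell lines were grown in 96-well plates and treated with compound for 48 hours. At the GI50, growth is halved. TGI: total growth inhibition.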
How the values were obtained:
Experiment in all cases: DTP human tumour cell line panel, 48 h
[1] = tested on: TK-10 renal
[2] = tested on: ACHN renal
[3] = tested on: MCF7 breast
[4] = tested on: KM12 colon
[5] = tested on: CCRF-CEM leukemia
[6] = tested on: UACC-257 melanoma
[7] = tested on: SF-539 CNS
[8] = tested on: A498 renal
[9] = tested on: T-47D breast
[10] = tested on: DU-145 prostate
[11] = tested on: SK-OV-3 ovarian
[12] = tested on: MDA-MB-231 breast
[13] = tested on: HCT-15 colon
[14] = tested on: SK-MEL-28 melanoma
[15] = tested on: RXF 393 renal
[16] = tested on: NCI-H522 lung
[17] = tested on: SK-MEL-2 melanoma
[18] = tested on: MDA-MB-435
[19] = tested on: OVCAR-5 ovarian
[20] = tested on: A549 NSCLC
[21] = tested on: BT-549 breast
[22] = tested on: HCT-116 colon
[23] = tested on: HCC-2998 colon
[24] = tested on: SF-268 CNS
[25] = tested on: SK-MEL-5 melanoma
[26] = tested on: K-562 leukemia
[27] = tested on: M14 melanoma
[28] = tested on: UACC-62 melanoma
[29] = tested on: IGROV1 ovarian
[30] = tested on: SN12C renal
[31] = tested on: COLO 205 colon
[32] = tested on: HOP-62 NSCLC
[33] = tested on: NCI-H226 lung
[34] = tested on: OVCAR-8 ovarian
[35] = tested on: NCI-H460 lung
[36] = tested on: LOX IMVI melanoma
[37] = tested on: NCI/ADR-RES ovarian
[38] = tested on: SR leukemia
[39] = tested on: OVCAR-3 ovarian
[40] = tested on: NCI-H23 lung
[41] = tested on: SW-620 colon
[42] = tested on: MALME-3M melanoma
[43] = tested on: 786-0 renal
[44] = tested on: CAKI-1 renal
[45] = tested on: HT29 colon
[46] = tested on: HOP-92 NSCLC
[47] = tested on: SNB-19 CNS
[48] = tested on: UO-31 renal
[49] = tested on: SF-295 CNS
[50] = tested on: PC-3 prostate
[51] = tested on: MOLT-4 leukemia
[52] = tested on: SNB-75 CNS
[53] = tested on: EKVX NSCLC
[54] = tested on: HS 578T breast
[55] = tested on: HL-60(TB) leukemia
[56] = tested on: U251 CNS

SMILES: O=C(NCCN1CCOCC1)Nc1nc2ccc(Sc3nnc4ccc(-c5ccc(F)cc5)nn34)cc2s1
- GI50 [1]: > 100 µM
- TGI [1]: > 100 µM
- GI50 [2]: > 90.8 µM
- TGI [2]: > 100 µM
- TGI [3]: > 100 µM
- GI50 [4]: 0.571 µM
- TGI [4]: > 100 µM
- TGI [5]: > 100 µM
- GI50 [6]: 7.94 µM
- TGI [6]: > 21.2 µM
- GI50 [7]: 2.94 µM
- TGI [7]: > 100 µM
- GI50 [8]: 80.6 µM
- TGI [8]: > 100 µM
- GI50 [9]: > 21.2 µM
- TGI [9]: > 59.6 µM
- GI50 [10]: > 100 µM
- TGI [10]: > 100 µM
- GI50 [11]: > 100 µM
- TGI [11]: > 100 µM
- GI50 [12]: 3 µM
- TGI [12]: > 21.6 µM
- GI50 [13]: > 26.7 µM
- TGI [13]: > 100 µM
- GI50 [14]: 2.59 µM
- GI50 [15]: 0.522 µM
- GI50 [16]: 26.4 µM
- TGI [16]: > 100 µM
- GI50 [17]: > 44.3 µM
- TGI [17]: > 91.2 µM
- TGI [18]: > 100 µM
- GI50 [19]: > 39 µM
- TGI [19]: > 100 µM
- GI50 [20]: > 100 µM
- TGI [20]: > 100 µM
- GI50 [21]: 2.62 µM
- TGI [21]: > 27.8 µM
- GI50 [22]: 6.88 µM
- TGI [22]: > 100 µM
- GI50 [23]: 17.3 µM
- TGI [23]: > 100 µM
- GI50 [24]: > 23.3 µM
- TGI [24]: > 100 µM
- TGI [25]: > 28.6 µM
- GI50 [26]: 2.31 µM
- TGI [26]: > 100 µM
- TGI [27]: > 38.8 µM
- GI50 [28]: 6.16 µM
- TGI [28]: 21.4 µM
- GI50 [29]: > 100 µM
- TGI [29]: > 100 µM
- TGI [30]: > 100 µM
- GI50 [31]: 4.53 µM
- TGI [31]: > 33.3 µM
- GI50 [32]: > 20.8 µM
- TGI [32]: > 100 µM
- GI50 [33]: 3.67 µM
- TGI [33]: > 100 µM
- GI50 [34]: > 100 µM
- TGI [34]: > 100 µM
- TGI [35]: > 100 µM
- TGI [36]: > 42.3 µM
- GI50 [37]: > 100 µM
- TGI [37]: > 100 µM
- GI50 [38]: 5.04 µM
- TGI [38]: > 100 µM
- GI50 [39]: > 100 µM
- TGI [39]: > 100 µM
- GI50 [40]: > 100 µM
- TGI [40]: > 100 µM
- TGI [41]: > 100 µM
- GI50 [42]: 3.12 µM
- TGI [42]: > 21.1 µM
- GI50 [43]: 1.59 µM
- TGI [43]: 5.39 µM
- TGI [44]: > 100 µM
- GI50 [45]: 2.79 µM
- TGI [45]: > 24.2 µM
- GI50 [46]: 3.32 µM
- TGI [46]: > 100 µM
- GI50 [47]: 2.8 µM
- TGI [47]: > 100 µM
- GI50 [48]: > 100 µM
- TGI [48]: > 100 µM
- GI50 [49]: 0.101 µM
- TGI [49]: 1.95 µM
- GI50 [50]: > 100 µM
- TGI [50]: > 100 µM
- GI50 [51]: > 100 µM
- TGI [51]: > 100 µM

SMILES: C=CC1CC12C(=O)C1OC2(C)C2C(=O)c3c(O)cccc3C(=O)C12 (configuration not stated)
- GI50 [1]: 39.7 µM
- TGI [1]: > 100 µM
- GI50 [2]: 20.1 µM
- TGI [2]: 46.6 µM
- GI50 [3]: 23.2 µM
- TGI [3]: 74.5 µM
- GI50 [4]: 18 µM
- TGI [4]: 66.3 µM
- GI50 [5]: 26 µM
- TGI [5]: > 100 µM
- GI50 [6]: 33.3 µM
- TGI [6]: > 100 µM
- GI50 [7]: 41.6 µM
- TGI [7]: > 100 µM
- GI50 [9]: 31.2 µM
- TGI [9]: > 100 µM
- GI50 [11]: 94.5 µM
- TGI [11]: > 100 µM
- GI50 [12]: 18.7 µM
- TGI [12]: 59 µM
- GI50 [13]: 19.1 µM
- TGI [13]: 44.6 µM
- GI50 [14]: 29.1 µM
- TGI [14]: > 100 µM
- GI50 [15]: 13.1 µM
- TGI [15]: 41.1 µM
- GI50 [16]: 39.8 µM
- TGI [16]: > 100 µM
- GI50 [17]: 50 µM
- TGI [17]: > 100 µM
- GI50 [18]: 21 µM
- TGI [18]: 45.1 µM
- GI50 [19]: > 100 µM
- TGI [19]: > 100 µM
- GI50 [20]: 70 µM
- TGI [20]: > 100 µM
- GI50 [21]: 53.4 µM
- TGI [21]: > 100 µM
- GI50 [22]: 38.1 µM
- TGI [22]: > 100 µM
- GI50 [23]: 31.1 µM
- TGI [23]: > 100 µM
- GI50 [24]: 30.5 µM
- TGI [24]: > 100 µM
- GI50 [52]: 72.4 µM
- TGI [52]: > 100 µM
- GI50 [53]: 56.9 µM
- TGI [53]: > 100 µM
- GI50 [26]: 29.6 µM
- TGI [26]: 90.7 µM
- GI50 [27]: 54.9 µM
- TGI [27]: > 100 µM
- GI50 [54]: 21.8 µM
- TGI [54]: 88.3 µM
- GI50 [55]: 18.7 µM
- TGI [55]: 46.9 µM
- GI50 [30]: 46.8 µM
- TGI [30]: > 100 µM
- GI50 [31]: 31.7 µM
- TGI [31]: > 100 µM
- GI50 [32]: > 100 µM
- TGI [32]: > 100 µM
- GI50 [56]: 28.7 µM
- TGI [56]: 77.7 µM
- GI50 [33]: 45.6 µM
- TGI [33]: > 100 µM
- GI50 [34]: 37.8 µM
- TGI [34]: > 100 µM
- GI50 [35]: 33.8 µM
- TGI [35]: > 100 µM
- GI50 [37]: 27.9 µM
- TGI [37]: 84.1 µM
- GI50 [40]: 26.9 µM
- TGI [40]: 85.6 µM
- GI50 [42]: 17.1 µM
- TGI [42]: 54.5 µM
- GI50 [43]: 29.1 µM
- TGI [43]: > 100 µM
- GI50 [44]: 13.1 µM
- TGI [44]: 31.8 µM
- GI50 [45]: 33.9 µM
- TGI [45]: > 100 µM
- GI50 [46]: 25.8 µM
- TGI [46]: > 100 µM
- GI50 [47]: 87.8 µM
- TGI [47]: > 100 µM
- GI50 [48]: > 100 µM
- TGI [48]: > 100 µM
- GI50 [50]: 25.7 µM
- TGI [50]: 81.5 µM
- GI50 [51]: 23.6 µM
- TGI [51]: > 100 µM

Source: PubChem BioAssay (NCI)
